In brackets after ≈: the same amount, converted by molar mass. Values belong to the compound of their own block, whether it stands above or below them.
How the values were obtained:
Candida albicans [1] = assay: Antifungal activity against Candida albicans MY1055 infected in DBA/2 mouse model assessed as log change in colony forming units in kidney at 25 mg/kg, po bid for 2 days and measured after 4 days by TOKA; type: functional; settings: time 2 day
Candida albicans [2] = assay: Antifungal activity against Candida albicans MY1055 infected in DBA/2 mouse model assessed as log change in colony forming units in kidney at 6.5 mg/kg, po bid for 2 days and measured after 4 days by TOKA; type: functional; settings: time 2 day
[3] = Oral bioavailability in mouse; type: ADME, organism-based; settings: in vivo
Candida albicans [4] = assay: Antifungal activity against Candida albicans MY1055 assessed as fungal growth inhibition measured after 24 hrs in presence of mouse serum by liquid microdilution method; type: functional
Candida albicans [5] = assay: Antifungal activity against Candida albicans MY1055 infected in DBA mouse model assessed as log change in colony forming units in kidney at 12.5 mg/kg, po bid for 2 days and measured after 4 days by TOKA; type: functional; settings: time 2 day
[6] = Inhibition of beta-1,3-glucan synthase in Candida albicans MY1055 microsomal membrane using UDP-[3H]-glucose as substrate incubated for 2 hrs in presence of UTP by radioactivity-based assay; type: cell membranes
Aspergillus fumigatus [7] = assay: Antifungal activity against Aspergillus fumigatus MF5668 assessed as fungal growth inhibition measured after 24 hrs by liquid microdilution method; type: functional; settings: read-out: MEC
Candida albicans [8] = assay: Antifungal activity against Candida albicans MY1055 assessed as fungal growth inhibition measured after 24 hrs by liquid microdilution method; type: functional
[9] = Clearance in dog; type: ADME, Canis lupus familiaris; settings: in vivo
[10] = Oral bioavailability in dog; type: ADME, organism-based, Canis lupus familiaris; settings: in vivo
Candida tropicalis = assay: Antifungal activity against Candida tropicalis MY1012 assessed as fungal growth inhibition; type: functional
Aspergillus fumigatus [11] = assay: Antifungal activity against Aspergillus fumigatus MF5668 infected in DBA/2N mouse assessed as mouse survival at 12.5 mg/kg, ip bid administered for 7 days starting from 30 mins post infection and measured up to 21 days relative to control; type: functional; settings: 168 h, time 7 day
Aspergillus fumigatus [12] = assay: Antifungal activity against Aspergillus fumigatus MF5668 infected in DBA/2N mouse assessed as mouse survival at 1.56 mg/kg, ip bid administered for 7 days starting from 30 mins post infection and measured up to 21 days relative to control; type: functional; settings: 168 h, time 7 day
Pichia kudriavzevii = assay: Antifungal activity against Candida krusei ATCC 6258 assessed as fungal growth inhibition; type: functional
[13] = Half lie in mouse; type: ADME, organism-based; settings: in vivo
Aspergillus fumigatus [14] = assay: Antifungal activity against Aspergillus fumigatus MF5668 infected in DBA/2N mouse assessed as mean survival days at 1.56 mg/kg, ip bid administered for 7 days starting from 30 mins post infection and measured up to 21 days relative to control; type: functional; settings: time 7 day
Aspergillus fumigatus [15] = assay: Antifungal activity against Aspergillus fumigatus MF5668 infected in DBA/2N mouse assessed as mouse survival at 3.125 mg/kg, ip bid administered for 7 days starting from 30 mins post infection and measured up to 21 days relative to control; type: functional; settings: 168 h, time 7 day
[16] = Half life in rat; type: ADME; settings: in vivo
Aspergillus fumigatus [17] = assay: Antifungal activity against Aspergillus fumigatus MF5668 infected in DBA/2N mouse assessed as mean survival days at 12.5 mg/kg, ip bid administered for 7 days starting from 30 mins post infection and measured up to 21 days relative to control; type: functional; settings: time 7 day
Aspergillus fumigatus [18] = assay: Antifungal activity against Aspergillus fumigatus MF5668 infected in DBA/2N mouse assessed as mean survival days at 6.25 mg/kg, ip bid administered for 7 days starting from 30 mins post infection and measured up to 21 days relative to control; type: functional; settings: time 7 day
Aspergillus fumigatus [19] = assay: Antifungal activity against Aspergillus fumigatus MF5668 infected in DBA/2N mouse assessed as mouse survival at 6.25 mg/kg, ip bid administered for 7 days starting from 30 mins post infection and measured up to 21 days relative to control; type: functional; settings: 168 h, time 7 day
[20] = Clearance in mouse; type: ADME, organism-based; settings: in vivo
[21] = Clearance in rat; type: ADME; settings: in vivo
Candida albicans [22] = assay: Antifungal activity against Candida albicans MY1055 infected in DBA/2N mouse model assessed as mouse survival at 6.5 mg/kg, po bid for 7 days and measured post-last dose by TOKA relative to control; type: functional; settings: 168 h, time 7 day
[23] = Half life in rhesus monkey; type: ADME, Macaca mulatta; settings: in vivo
Candida albicans [24] = assay: Antifungal activity against Candida albicans MY1055 infected in DBA/2N mouse model assessed as mouse survival at 12.5 mg/kg, po bid for 7 days and measured post-last dose by TOKA relative to control; type: functional; settings: 168 h, time 7 day
[25] = Oral bioavailability in rat; type: ADME, organism-based; settings: in vivo
[26] = Half life in dog; type: ADME, Canis lupus familiaris; settings: in vivo
[27] = Oral bioavailability in rhesus monkey; type: ADME, organism-based, Macaca mulatta; settings: in vivo
Candida albicans [28] = assay: Antifungal activity against Candida albicans MY1055 infected in DBA/2N mouse model administered for 7 days by TOKA; type: functional; settings: MY1055, 168 h, time 7 day
Aspergillus fumigatus [29] = assay: Antifungal activity against Aspergillus fumigatus MF5668 infected in DBA/2N mouse assessed as mean survival days at 3.125 mg/kg, ip bid administered for 7 days starting from 30 mins post infection and measured up to 21 days relative to control; type: functional; settings: time 7 day
Candida parapsilosis = assay: Antifungal activity against Candida parapsilosis ATCC 22019 assessed as fungal growth inhibition; type: functional; settings: Lodderomyces parapsilosis
Candida albicans [30] = assay: Antifungal activity against Candida albicans MY1055 infected in DBA/2N mouse model assessed as mouse survival at 12.5 mg/kg, ip bid for 7 days and measured post-last dose by TOKA relative to control; type: functional; settings: 168 h, time 7 day
Nakaseomyces glabratus = assay: Antifungal activity against Candida glabrata MY1381 assessed as fungal growth inhibition; type: functional
Clavispora lusitaniae = assay: Antifungal activity against Clavispora lusitaniae MY1396 assessed as fungal growth inhibition; type: functional
Candida albicans [31] = assay: Antifungal activity against Candida albicans MY1055 infected in DBA/2N mouse model assessed as mouse survival at 25 mg/kg, po bid for 7 days and measured post-last dose by TOKA relative to control; type: functional; settings: 168 h, time 7 day
[32] = Clearance in rhesus monkey; type: ADME, Macaca mulatta; settings: in vivo

SMILES: CC(C)[C@@H](C)[C@@]1(C)CC[C@]2(C)[C@H]3CC[C@@H]4[C@@]5(COC[C@]4(C)[C@@H](OC[C@H](N)C(C)(C)C)[C@H](n4ncnc4C(N)=O)C5)C3=CC[C@@]2(C)[C@@H]1C(=O)O
Activity (Candida albicans [1]): -2.6 log CFU | Activity (Candida albicans [2]): -1.9 log CFU | bioavailability [3]: 10% | MIC (Candida albicans [4]): 8 µg/mL | Activity (Candida albicans [5]): -1.7 log CFU | IC50 [6]: 0.008 µg/mL | minimal effective concentration (Aspergillus fumigatus [7]): < 0.03 µg/mL | MIC (Candida albicans [8]): 0.25 µg/mL (≈ 0.367 µM)

SMILES: CCC(N)(CC)CO[C@H]1[C@H](n2ncnc2C(N)=O)C[C@@]23COC[C@@]1(C)[C@@H]2CC[C@H]1C3=CC[C@@]2(C)[C@H](C(=O)O)[C@@](C)([C@H](C)C(C)C)CC[C@]12C
Activity (Candida albicans [1]): -1.9 log CFU | Activity (Candida albicans [2]): -0.2 log CFU | bioavailability [3]: 3% | MIC (Candida albicans [4]): 16 µg/mL | Activity (Candida albicans [5]): -0.6 log CFU | IC50 [6]: 0.007 µg/mL | minimal effective concentration (Aspergillus fumigatus [7]): < 0.03 µg/mL | MIC (Candida albicans [8]): 0.125 µg/mL (≈ 0.183 µM)

SMILES: CC(C)[C@@H](C)[C@@]1(C)CC[C@]2(C)[C@H]3CC[C@@H]4[C@@]5(COC[C@]4(C)[C@@H](OC[C@](C)(N)C(C)(C)C)[C@H](n4ncnc4C(N)=O)C5)C3=CC[C@@]2(C)[C@@H]1C(=O)O
clearance [9]: 2 mL/min/kg | bioavailability [10]: 35% | MIC (Candida tropicalis): 0.5 µg/mL (≈ 0.718 µM) | survival at 12.5 mg/kg (Aspergillus fumigatus [11]): 60% | survival at 1.56 mg/kg (Aspergillus fumigatus [12]): 0% | MIC (Pichia kudriavzevii): 1 µg/mL (≈ 1.44 µM) | half-life [13]: 5.1 h | MSD (Aspergillus fumigatus [14]): 6.5 days | Activity (Candida albicans [1]): -2.2 log CFU | survival at 3.125 mg/kg (Aspergillus fumigatus [15]): 10% | half-life [16]: 5.5 h | MSD (Aspergillus fumigatus [17]): 14.4 days | MSD (Aspergillus fumigatus [18]): 12.5 days | survival at 6.25 mg/kg (Aspergillus fumigatus [19]): 40% | clearance [20]: 11 mL/min/kg | clearance [21]: 6 mL/min/kg | survival at 6.5 mg/kg (Candida albicans [22]): 100% | half-life [23]: 8.5 h | survival at 12.5 mg/kg (Candida albicans [24]): 100% | bioavailability [25]: 17% | Activity (Candida albicans [2]): -1.5 log CFU | half-life [26]: 12.3 h | bioavailability [3]: 12% | MIC (Candida albicans [4]): 2 µg/mL | bioavailability [27]: 12% | ED99 (Candida albicans [28]): 6.4 mg/kg | MSD (Aspergillus fumigatus [29]): 7.3 days | Activity (Candida albicans [5]): -2.5 log CFU | IC50 [6]: 0.003 µg/mL | minimal effective concentration (Aspergillus fumigatus [7]): < 0.03 µg/mL | MIC (Candida parapsilosis): 0.06 µg/mL (≈ 0.0862 µM) | survival at 12.5 mg/kg (Candida albicans [30]): 100% | MIC (Candida albicans [8]): 0.06 µg/mL (≈ 0.0862 µM) | MIC (Nakaseomyces glabratus): 0.125 µg/mL (≈ 0.18 µM) | MIC (Clavispora lusitaniae): 0.125 µg/mL (≈ 0.18 µM) | survival at 25 mg/kg (Candida albicans [31]): 80% | clearance [32]: 4 mL/min/kg

Continued, in another order:

bioavailability [3]: 19% | MIC (Candida albicans [4]): 32 µg/mL | IC50 [6]: 0.015 µg/mL | MIC (Candida albicans [8]): 0.5 µg/mL (≈ 0.691 µM)
SMILES: CCCN[C@@](C)(CO[C@H]1[C@H](n2ncnc2C(N)=O)C[C@@]23COC[C@@]1(C)[C@@H]2CC[C@H]1C3=CC[C@@]2(C)[C@H](C(=O)O)[C@@](C)([C@H](C)C(C)C)CC[C@]12C)C(C)C
Activity (Candida albicans [1]): -1.9 log CFU | Activity (Candida albicans [2]): -0.7 log CFU | Activity (Candida albicans [5]): -0.8 log CFU | minimal effective concentration (Aspergillus fumigatus [7]): < 0.03 µg/mL

bioavailability [3]: 21% | MIC (Candida albicans [4]): 16 µg/mL | IC50 [6]: 0.015 µg/mL | MIC (Candida albicans [8]): 0.5 µg/mL (≈ 0.704 µM)
SMILES: CC(C)[C@@H](C)[C@@]1(C)CC[C@]2(C)[C@H]3CC[C@@H]4[C@@]5(COC[C@]4(C)[C@@H](OC[C@@](C)(C(C)C)N(C)C)[C@H](n4ncnc4C(N)=O)C5)C3=CC[C@@]2(C)[C@@H]1C(=O)O
Activity (Candida albicans [1]): -1.8 log CFU | Activity (Candida albicans [2]): -0.3 log CFU | Activity (Candida albicans [5]): -1.4 log CFU | minimal effective concentration (Aspergillus fumigatus [7]): < 0.03 µg/mL

bioavailability [3]: 17% | MIC (Candida albicans [4]): 16 µg/mL | IC50 [6]: 0.011 µg/mL | MIC (Candida albicans [8]): 0.25 µg/mL (≈ 0.352 µM)
SMILES: CCN[C@@](C)(CO[C@H]1[C@H](n2ncnc2C(N)=O)C[C@@]23COC[C@@]1(C)[C@@H]2CC[C@H]1C3=CC[C@@]2(C)[C@H](C(=O)O)[C@@](C)([C@H](C)C(C)C)CC[C@]12C)C(C)C
Activity (Candida albicans [1]): -1.8 log CFU | Activity (Candida albicans [2]): -1.1 log CFU | Activity (Candida albicans [5]): -1.1 log CFU | minimal effective concentration (Aspergillus fumigatus [7]): < 0.03 µg/mL

bioavailability [3]: 5% | MIC (Candida albicans [4]): 8 µg/mL | IC50 [6]: 0.005 µg/mL | MIC (Candida albicans [8]): 0.25 µg/mL (≈ 0.359 µM)
SMILES: CN[C@@](C)(CO[C@H]1[C@H](n2ncnc2C(N)=O)C[C@@]23COC[C@@]1(C)[C@@H]2CC[C@H]1C3=CC[C@@]2(C)[C@H](C(=O)O)[C@@](C)([C@H](C)C(C)C)CC[C@]12C)C(C)C
Activity (Candida albicans [1]): -1.2 log CFU | Activity (Candida albicans [2]): -0.4 log CFU | Activity (Candida albicans [5]): -0.5 log CFU | minimal effective concentration (Aspergillus fumigatus [7]): < 0.03 µg/mL

Reference: ChEMBL document CHEMBL4725308, “MK-5204: An orally active β-1,3-glucan synthesis inhibitor” (Bioorg Med Chem Lett, 2020)
